This is an account of results in paper PMC6478794, “Identification of a Novel Bcl-2 Inhibitor by Ligand-Based Screening and Investigation of Its Anti-cancer Effect on Human Breast Cancer Cells” (Frontiers in Pharmacology, 2019).

Like-named read-outs stand apart in the source and are kept apart here.

In series [1] the target is recombinant human Bcl-2 protein (Homo sapiens, UniProt P10415). In words: Surface plasmon resonance (SPR) binding assay. On the procedure:
The interaction between virtual screening candidates and Bcl-2 was determined using a PlexArray HT biological molecular interaction analyzer (PLEXERA LLC, USA). Candidates were covalently immobilized to the surface of sensor chip following the standard coupling reaction guide. Candidates were dissolved in DMSO to a final concentration of 10 μM. To analyze binding signal, a set of concentration gradient (700, 350, 175, 87.5 nM) of Bcl-2 protein were, respectively, diluted with PBST (1x PBS + 0.1% Tween-20, pH 7.4). PBST was also used as running buffer and samples were injected into the flow cell chamber of the sensor chip one by another with rate of 2 μL/s for 300 s. After the injection stage, running buffer was flowed over the chip surface for 300 s at 2 μL/s to allow the bound analytes to dissociate from the Bcl-2. The response unit (RU) of sample dots on the chip surface was recorded by the interaction analyzer during the whole process. In this way, dissociation curves obtained. HBS-P buffer was used as vehicle controls. Lastly, the changes in RU and the binding curve were measured by the PlexeraDE software (PLEXERA LLC, USA).

Series [2] deals with MDA-MB-231 cells. Briefly: Cell viability CCK-8 assay. The class given is cell-based. The conditions noted are these: Homo sapiens, 48 h. As to the method:
(§1) The human breast cancer cell line MDA-MB-231, T47D, and BT549, were purchased from Cell Bank of Chinese Academy of Sciences. MDA-MB-231 were cultured in L-15 medium with 10% FBS at 37°C with 100% air, and T47D were cultured in DMEM/High glucose medium with 10% FBS at 37°C with 5% CO2. BT549 was cultured in 1,640 medium with 10% FBS at 37°C with 5% CO2.
(§2) Cell viability was measured by Cell Counting Kit-8 (CCK-8) assay following the manufacturer's protocol. Cells were plated at 5 × 10^3 cells per well in 96-well plates. After compound M1 treatment, cells were incubated with 10 μL CCK-8 for 2 h at 37°C with 5% CO2. The results were determined at 450 nm wave length.

The test system of another series is Bcl-xl. The settings on record: cited from earlier work.
A further series deals with Mcl-1. The conditions noted are these: cited from earlier work.
In series [3] the test system is Bcl-2. The conditions noted are these: cited from earlier work.
For series [4] the following is noted: cited from earlier work.
On the set-up of series [5]: method as in Seymour et al., 2013; Vandenberg and Cory, 2013. The conditions noted are these: ref Seymour et al., 2013, Vandenberg and Cory, cited from earlier work.
Series [6] concerns MDA-MB-231, T47D, and BT549 cells. In words: CCK-8 cell viability, dose and time course in three breast cancer cell lines. It counts as cell-based, human. The settings on record: series of doses 72 h; time course at 5, 2, or 3 μM. On the procedure: as §1, §2
In series [7] the test system is MDA-MB-231 cells. Briefly: Detection of reactive oxygen species (DCFH-DA). It counts as cell-based, human. The conditions noted are these: 2 or 4 μM, 48 h. On the procedure: Cells were treated with 2 or 4 μM compound M1 for 48 h. After that, cells were rinsed twice with PBS and incubated with DCFH-DA (10 μmol/L) at 37°C in a darkroom. The fluorescence intensity of DCF was detected at an emission wavelength of 525 nm and excitation wavelength of 488 nm.

In series [8] the test system is T47D cells. In words: Annexin V-FITC/PI apoptosis assay (flow cytometry). It counts as cell-based, human. The conditions noted are these: 48 h. On the procedure:
Cell apoptosis was measured by Annexin V-FITC/PI double-staining Kit following the manufacturer's protocol. After treatment with 8 or 16 μM compound M1 for 48 h, cells were washed twice with cold phosphate buffer saline and then, suspended in 100 μL binding buffer (BD CAT. NO.556547) with 5 μL Annexin-V (BD CAT. NO.556420) and 5 μL PI (BD CAT. NO.556463). And cells were gently vortexed and incubated at room temperature for 15 min in darkness for flow cytometric (Becton Dickison) analysis.
(In general: In flow cytometry, cells or beads pass a laser one at a time.)

The next series deals with T47D and BT549 cells. In words: Western blot of cleaved caspase-3 and cleaved PARP. The class given is cell-based, human. The settings on record: 48 h. On the procedure:
(§3) After compound M1 treatment, cells were lysed with RIPA buffer supplemented with protease inhibitor (Selleck) on ice for 30 min following by centrifugation at 14,000 × g for 15 min. Protein concentrations of the lysates were determined by BCA assay kit. Equivalent amounts of cellular protein were separated by SDS-PAGE and transferred to polyvinylidene difluoride membranes. And then, the membranes were blocked with 5% skim milk in TBST. The membranes were incubated with primary antibodies and peroxidase-conjugated secondary antibodies. Finally, the membranes were visualized with an enhanced chemiluminescent detection kit.

Series [9] deals with MDA-MB-231 cells. Briefly: Mitochondrial membrane potential (JC-1 staining). It counts as cell-based, human. The settings on record: 2 or 4 μM, 48 h. On the procedure: The MMP was measured using JC-1 assay kit according to the manufacturer's protocol. Cells were treated with 2 or 4 μM compound M1 for 48 h. The cells were cultured with JC-1 staining reagent (1x) at 37°C for 20 min. Cells were washed twice by JC-1 staining buffer. Next, the fluorescence intensity of JC-1 aggregate or monomer was observed by fluorescent microscopic. The ratio of aggregates to monomers was estimated as a symbol of mitochondrial membrane potential.

Series [10] concerns T47D cells. In words: Western blot of cytochrome c in mitochondrial and cytosol fraction. The class given is cell-based, human. The conditions noted are these: 4 or 8 μM, 48 h. On the procedure: as §3
In general terms: Immunoblotting shows a protein as a band on a membrane.

The subject of series [11] is MDA-MB-231 cells. Briefly: Clonogenic assay. The class given is cell-based, human. The conditions noted are these: 4 or 8 μM, 48 h, then 10 days. As to the method:
The cells were plated at 200 cells per well in six-well culture plates followed by compound M1 for 48 h. At the end of treatment, the cells were cultured with fresh medium, and were grown at 37°C for 10 days. After colony formation, the cells were washed with PBS and immobilized by 4% formaldehyde at room temperature for 30 min. Finally, the cells were dyed with 0.5% crystal violet.

Series [12] concerns Bcl-2. Briefly: Western blot of Bcl-2 expression. The class given is cell-based, human. The conditions noted are these: MDA-MB-231, T47D, and BT549 cells; different doses 48 h or 8 μM over time. As to the method: as §3
The subject of series [13] is MDA-MB-231 cells. Briefly: EdU incorporation assay. It counts as cell-based, human. The settings on record: 4 or 8 μM, 48 h. As to the method:
Cell Proliferation was measured by Cell Light EdU DNA Cell Proliferation Kit. Cells were plated in 96-well culture plates. Cells were treated with 4 or 8 μM compound M1 for 48 h. At the end of treatment, cells were incubated with EdU reagent for 2 h at 37°C. Four percent of paraformaldehyde was used to fix the cells for 15 min. Then, cells were incubated with 0.5% Triton X-100 for 30 min. Washed cells with PBS three times. After that, cells were dyed with reaction cocktail for 30 min, and stained cell nucleus with 5 μg/mL of Hoechst 33,342 for 30 min. Images were observed by fluorescent microscope.

The test system of another series is hematologic malignancies. The settings on record: preclinical researches; cited from earlier work.
On the set-up of series [14]: method as in Schoenwaelder et al., 2011. The conditions noted are these: in vivo; ref Schoenwaelder et al., 2011; cited from earlier work.
Setting [15] is: compound immobilized on chip, Bcl-2 protein 700 nM, read-out: KD, dissociation equilibrium constant.

Chain of recombinant human Bcl-2 protein (P10415 whole entry): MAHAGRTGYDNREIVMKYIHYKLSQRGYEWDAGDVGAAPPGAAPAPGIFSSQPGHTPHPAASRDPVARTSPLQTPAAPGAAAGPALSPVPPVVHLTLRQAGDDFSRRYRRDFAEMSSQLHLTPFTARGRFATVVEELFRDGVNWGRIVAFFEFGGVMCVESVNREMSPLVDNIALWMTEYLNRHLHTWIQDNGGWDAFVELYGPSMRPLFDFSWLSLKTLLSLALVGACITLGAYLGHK

On to `COc1ccc(/C=c2/sc3n(c2=O)C(c2ccc(Cl)cc2)C(C(=O)Nc2ccccc2)=C(C)N=3)cc1COc1ccc(F)cc1F` (stereo not drawn) [M6], for which, in [1] (setting [15]), the Kd (commonly the concentration at which binding is half-saturated) came out at 68.5 nM. For the same compound, in the series with MDA-MB-231 cells [2], the IC50 – broadly, the midpoint of a concentration-inhibition curve – was greater than 50000 nM.

With `Cc1ccc(S(=O)(=O)N(Cc2ccc(Cl)cc2)c2ccccc2C(=O)Nc2ccc(S(=O)(=O)Nc3ccc(F)cc3)cc2)cc1` [M5], in series [1] (setting [15]), the Kd amounted to 570 nM. The IC50 with MDA-MB-231 cells [2] is greater than 50000 nM.

Consider `Cc1ccc(S(=O)(=O)N(Cc2ccc(Cl)cc2)c2ccccc2C(=O)Nc2ccccc2C(=O)NC(C)c2ccccc2)cc1` (stereo not drawn) [M2], for which the dissociation constant (Kd) in series [1] (setting [15]) came to 406 nM. For the same compound, the IC50 with MDA-MB-231 cells [2] is greater than 50000 nM.

On to AT-101, for which the “affinity with Bcl-xl” value in the series with Bcl-xl is “submicromolar concentrations”. The “affinity for Mcl-1” value with Mcl-1 is “submicromolar concentrations”. Further, the “affinity with Bcl-2” value with Bcl-2 [3] is on record as “submicromolar concentrations”. Besides, the clinical activity entry in series [4] (early phase II trials, monotherapy or combination, lung and prostate cancers, ref Ready et al., 2011) is “failed to exert significant clinical activity”. Also, in series [4] (ref Liu et al., 2009), the tolerability in patients entry was “well-tolerated”.

In the case of `CCOc1cccc(C2N(c3ccccc3)N=C(C(C)=O)N2c2ccc(N3CCOCC3)c(Cl)c2)c1OCc1ccc(Cl)cc1Cl` (stereo not drawn) [M8], the Kd in [1] (setting [15]) turned out to be 10800 nM. Besides, the IC50 in the series with MDA-MB-231 cells [2] was greater than 50000 nM.

With `CCN(CC)c1ccc(N2C(C(C)=O)=NN(c3ccc(Cl)cc3)C2c2ccccc2OCc2ccc(Cl)cc2Cl)cc1` (stereo not drawn) [M7], in series [1] (setting [15]), the dissociation constant (Kd) was determined as 1590 nM. For the same compound, the IC50 in the series on MDA-MB-231 cells [2] is greater than 50000 nM.

Turning to `CC1(C)CCC(CN2CCN(c3ccc(C(=O)NS(=O)(=O)c4ccc(NCC5CCOCC5)c([N+](=O)[O-])c4)c(Oc4cnc5[nH]ccc5c4)c3)CC2)=C(c2ccc(Cl)cc2)C1` [ABT-199], in series [5] (patients with chronic lymphocytic leukemia), the tumor lysis syndrome result is recorded as “tumor lysis syndrome was caused”. Also, in [5] (phase I trials), the “activity in patients with lymphoma” value is “greater activity than ABT-263” and the “effects on platelet counts” value is reported as “no significant effects on platelet counts”.

In the case of `COc1cc(N2C(C(C)=O)=NN(c3ccc(C)cc3)C2c2ccccc2OCc2ccccc2F)ccc1NC(=O)C(C)C` (stereo not drawn) [M1], in [6], the “cell proliferation (cell viability)” value is “inhibits cell proliferation in concentration- and time- dependent”. For the same compound, the “level of generated ROS” value with MDA-MB-231 cells [7] was “elevation in the level of generated ROS”. Besides, in series [1], the koff (as a rule, a measure of how fast the partners let go of each other) was determined as 0.00142 s⁻¹ and the kon (as a rule, the rate constant with which the complex forms) stood at 4480 M⁻¹ s⁻¹. Also, in series [1] (M1, text and Figure 5B, read-out: KD), the Kd was determined as 370 nM. Further, the Kd in series [1] (setting [15]) was 317 nM. Further, the “apoptosis (Annexin V staining)” value in the series with T47D cells [8] is “dose-dependent increase in apoptosis”. Moreover, the “cleaved PARP and cleaved caspase-3” value with T47D and BT549 cells is reported as “increase”. For the same compound, the “mitochondrial membrane potential (MMP)” value with MDA-MB-231 cells [9] is recorded as “caused the disturbance of MMP”. The “release of cytochrome c from mitochondria to cytosol” value in the series on T47D cells [10] is recorded as “increased the release of cytochrome c”. For the same compound, the IC50 in the series with MDA-MB-231 cells [2] came out at 5000 nM. Besides, the clonogenicity entry in the series with MDA-MB-231 cells [11] is reported as “reduced in a dose-dependent manner”. The “protein expression of Bcl-2” value with Bcl-2 [12] was “decreased the protein expression of Bcl-2”. Moreover, the EdU-positive cells result with MDA-MB-231 cells [13] was “reduced number of EdU-positive cells”.

`CN(C)CC[C@H](CSc1ccccc1)Nc1ccc(S(=O)(=O)NC(=O)c2ccc(N3CCN(Cc4ccccc4-c4ccc(Cl)cc4)CC3)cc2)cc1[N+](=O)[O-]` [ABT-737]: in the series on hematologic malignancies, the “cytotoxicity against hematologic malignancies” value is “significant cytotoxicity”. Moreover, the “affinity with Bcl-xl” value in the series with Bcl-xl is reported as “high affinity”. Moreover, in the series on Bcl-2 [3], the “affinity with Bcl-2” value was “high affinity”. In addition, the thrombocytopenia entry in series [14] is on record as “can cause thrombocytopenia”.

Turning to `Cc1cc(C(=O)C2=C(O)C(=O)N(CCCN3CCOCC3)C2c2cccc(Oc3ccccc3)c2)ccc1OCc1ccccc1` (stereo not drawn) [M3], the Kd in series [1] (setting [15]) came to 856 nM. Moreover, the IC50 with MDA-MB-231 cells [2] was greater than 50000 nM.

Consider `CC1(C)CCC(c2ccc(Cl)cc2)=C(CN2CCN(c3ccc(C(=O)NS(=O)(=O)c4ccc(N[C@H](CCN5CCOCC5)CSc5ccccc5)c(S(=O)(=O)C(F)(F)F)c4)cc3)CC2)C1` [ABT-263], for which the “cytotoxicity against hematologic malignancies” value with hematologic malignancies is on record as “significant cytotoxicity”. Moreover, the thrombocytopenia result in series [14] was “can cause thrombocytopenia”.

Consider `COc1cc(-c2cc(-c3ccccc3)nc(SCC(=O)Nc3cc(Cl)ccc3C)c2C#N)ccc1OCc1ccccc1` [M4], for which the Kd in [1] (setting [15]) stood at 4760 nM. In addition, in the series with MDA-MB-231 cells [2], the IC50 is greater than 50000 nM.
